# Patent publication US9211310B2, “Use of a Chinese medicine composition in preparing medicaments for treating secondary prevention of myocardial infarction” (TASLY PHARMACEUTICAL GROUP CO., LTD, priority 2010, dated 2015)
# System: patients after acute myocardial infarction
# Experiment: Life quality, Seattle Angina Questionnaire (SAQ), same clinical trial
# Type: in vivo, human
# Conditions: FAS
# Excerpt: 3508 patients who were in accordance with the diagnostic standards of AMI for 28 days to 2 years and differentiated as Qi deficiency and blood stagnation syndrome by TCM were studied. 0.5 g Chinese medicine composition prepared by the method of EXAMPLE 1 (Coded as QSYQ) was administrated half an hour after meal, 3 times per day.
# There were 19 questions in the Seattle angina questionnaire (SAQ), including 5 parts: physical limitation (PL), anginal stability (AS), anginal frequency (AF), treatment satisfaction (TS) and disease perception (DP). After being given necessary explanation by doctors, the questions were answered independently by patients.
# They included the overall survival time, angina pectoris score, TCM symptom score and life quality score, where angina pectoris score, TCM symptom score and life quality score were evaluated at randomization, in 1st, 3rd, 6th, 9th, 12th month after treatment and 18th month after follow-up.
# All evaluation results of SAQ were described during the period of observation, and Wilcoxon rank sum test was used for inter-group comparison.
# The evaluation results in the SAQ were depicted in different observations, and inter-group comparison was tested by Wilcoxon Rank-sum test.
smiles,measurement,setting,value
"CC(=O)Oc1ccccc1C(=O)O [Control group, aspirine]","10th question: Mostly satisfied, patients (%)",Baseline,(16.89%)
same,"10th question: Partly satisfied, patients (%)",Baseline,(31.19%)
same,"11th question: Continuously worried, patients (%)",Baseline,(9.59%)
same,"11th question: No worried, patients (%)",Baseline,(4.13%)
same,"11th question: Occasionally worried, patients (%)",Baseline,(40.93%)
same,"11th question: Often worried, patients (%)",Baseline,(23.88%)
same,"11th question: Seldom worried, patients (%)",Baseline,(21.47%)
same,"SAQ 4th question, 1-2 times per week: % of patients",Baseline,(19.80%)
same,"SAQ 4th question, 1-2 times per week: number of patients",Baseline,344
same,"SAQ 4th question, 1-3 times per day: % of patients",Baseline,(8.64%)
same,"SAQ 4th question, 1-3 times per day: number of patients",Baseline,150
same,"SAQ 4th question, <1 time per week: % of patients",Baseline,(10.13%)
same,"SAQ 4th question, <1 time per week: number of patients",Baseline,176
same,"SAQ 4th question, Not used: % of patients",Baseline,(43.64%)
same,"SAQ 4th question, Not used: number of patients",Baseline,758
same,"SAQ 4th question, ≧3 times per week: % of patients",Baseline,(16.87%)
same,"SAQ 4th question, ≧3 times per week: number of patients",Baseline,293
same,"SAQ 4th question, ≧4 times per day: % of patients",Baseline,(0.92%)
same,"SAQ 4th question, ≧4 times per day: number of patients",Baseline,16
same,"SAQ 5th question, Few: % of patients",Baseline,(18.88%)
same,"SAQ 5th question, Few: number of patients",Baseline,328
same,"SAQ 5th question, Mild: % of patients",Baseline,(30.74%)
same,"SAQ 5th question, Mild: number of patients",Baseline,534
same,"SAQ 5th question, Moderate: % of patients",Baseline,(20.50%)
same,"SAQ 5th question, Moderate: number of patients",Baseline,356
same,"SAQ 5th question, None: % of patients",Baseline,(23.43%)
same,"SAQ 5th question, None: number of patients",Baseline,407
same,"SAQ 5th question, Not medicated by doctors: % of patients",Baseline,(2.99%)
same,"SAQ 5th question, Not medicated by doctors: number of patients",Baseline,52
same,"SAQ 5th question, Severe: % of patients",Baseline,(3.45%)
same,"SAQ 5th question, Severe: number of patients",Baseline,60
same,"SAQ 6th question, Dissatisfied: % of patients",Baseline,(1.15%)
same,"SAQ 6th question, Dissatisfied: number of patients",Baseline,20
same,"SAQ 6th question, Highly satisfied: % of patients",Baseline,(15.33%)
same,"SAQ 6th question, Highly satisfied: number of patients",Baseline,267
same,"SAQ 6th question, Mostly dissatisfied: % of patients",Baseline,(6.54%)
same,"SAQ 6th question, Mostly dissatisfied: number of patients",Baseline,114
same,"SAQ 6th question, Mostly satisfied: % of patients",Baseline,(45.52%)
same,"SAQ 6th question, Mostly satisfied: number of patients",Baseline,793
same,"SAQ 6th question, Partly satisfied: % of patients",Baseline,(31.46%)
same,"SAQ 6th question, Partly satisfied: number of patients",Baseline,548
same,"SAQ 7th question, Dissatisfied: % of patients",Baseline,(0.40%)
same,"SAQ 7th question, Dissatisfied: number of patients",Baseline,7
same,"SAQ 7th question, Highly satisfied: % of patients",Baseline,(20.40%)
same,"SAQ 7th question, Highly satisfied: number of patients",Baseline,355
same,"SAQ 7th question, Mostly dissatisfied: % of patients",Baseline,(4.60%)
same,"SAQ 7th question, Mostly dissatisfied: number of patients",Baseline,80
same,"SAQ 7th question, Mostly satisfied: % of patients",Baseline,(47.99%)
same,"SAQ 7th question, Mostly satisfied: number of patients",Baseline,835
same,"SAQ 7th question, Partly satisfied: % of patients",Baseline,(26.61%)
same,"SAQ 7th question, Partly satisfied: number of patients",Baseline,463
same,"SAQ Question 1-1 Mildly limited, number of patients",Baseline,34
same,"SAQ Question 1-1 Mildly limited, percent of patients",Baseline,(1.95%)
same,"SAQ Question 1-1 Moderately limited, number of patients",Baseline,16
same,"SAQ Question 1-1 Moderately limited, percent of patients",Baseline,(0.92%)
same,"SAQ Question 1-1 Not limited, number of patients",Baseline,1582
same,"SAQ Question 1-1 Not limited, percent of patients",Baseline,(90.92%)
same,"SAQ Question 1-1 Other reasons, number of patients",Baseline,5
same,"SAQ Question 1-1 Other reasons, percent of patients",Baseline,(0.29%)
same,"SAQ Question 1-1 Severely limited, number of patients",Baseline,1
same,"SAQ Question 1-1 Severely limited, percent of patients",Baseline,(0.06%)
same,"SAQ Question 1-1 Slightly limited, number of patients",Baseline,102
same,"SAQ Question 1-1 Slightly limited, percent of patients",Baseline,(5.86%)
same,"SAQ Question 1-2 Mildly limited, number of patients",Baseline,46
same,"SAQ Question 1-2 Mildly limited, percent of patients",Baseline,(2.64%)
same,"SAQ Question 1-2 Moderately limited, number of patients",Baseline,18
same,"SAQ Question 1-2 Moderately limited, percent of patients",Baseline,(1.03%)
same,"SAQ Question 1-2 Not limited, number of patients",Baseline,1539
same,"SAQ Question 1-2 Not limited, percent of patients",Baseline,(88.45%)
same,"SAQ Question 1-2 Other reasons, number of patients",Baseline,6
same,"SAQ Question 1-2 Other reasons, percent of patients",Baseline,(0.34%)
same,"SAQ Question 1-2 Severely limited, number of patients",Baseline,2
same,"SAQ Question 1-2 Severely limited, percent of patients",Baseline,(0.11%)
same,"SAQ Question 1-2 Slightly limited, number of patients",Baseline,129
same,"SAQ Question 1-2 Slightly limited, percent of patients",Baseline,(7.41%)
same,"SAQ Question 1-6: Mildly limited, patients (%)",Baseline,(20.89%)
same,"SAQ Question 1-6: Moderately limited, patients (%)",Baseline,(17.95%)
same,"SAQ Question 1-6: Not limited, patients (%)",Baseline,(25.85%)
same,"SAQ Question 1-6: Other reasons, patients (%)",Baseline,(0.92%)
same,"SAQ Question 1-6: Severely limited, patients (%)",Baseline,(6.75%)
same,"SAQ Question 1-6: Slightly limited, patients (%)",Baseline,(27.64%)
same,"SAQ Question 1-7: Mildly limited, patients (%)",Baseline,(24.74%)
same,"SAQ Question 1-7: Moderately limited, patients (%)",Baseline,(19.42%)
same,"SAQ Question 1-7: Not limited, patients (%)",Baseline,(10.64%)
same,"SAQ Question 1-7: Other reasons, patients (%)",Baseline,(2.81%)
same,"SAQ Question 1-7: Severely limited, patients (%)",Baseline,(20.94%)
same,"SAQ Question 1-7: Slightly limited, patients (%)",Baseline,(21.46%)
same,"SAQ Question 1-8: Mildly limited, patients (%)",Baseline,(23.63%)
same,"SAQ Question 1-8: Moderately limited, patients (%)",Baseline,(22.57%)
same,"SAQ Question 1-8: Not limited, patients (%)",Baseline,(8.07%)
same,"SAQ Question 1-8: Other reasons, patients (%)",Baseline,(2.40%)
same,"SAQ Question 1-8: Severely limited, patients (%)",Baseline,(25.96%)
same,"SAQ Question 1-8: Slightly limited, patients (%)",Baseline,(17.37%)
same,"8th question: Dissatisfied, patients (%)",Follow-up,(0.07%)
same,"8th question: Highly satisfied, patients (%)",Follow-up,(28.03%)
same,"8th question: Mostly dissatisfied, patients (%)",Follow-up,(0.62%)
same,"8th question: Mostly satisfied, patients (%)",Follow-up,(60.61%)
same,"8th question: Partly satisfied, patients (%)",Follow-up,(10.67%)
same,"9th question: Few, patients (%)",Follow-up,(44.26%)
same,"9th question: Mild, patients (%)",Follow-up,(27.29%)
same,"9th question: Moderate, patients (%)",Follow-up,(3.78%)
same,"9th question: Severe, patients (%)",Follow-up,(0.14%)
same,"9th question: Uneffective, patients (%)",Follow-up,(24.54%)
same,"10th question: Dissatisfied, patients (%)",Follow-up,(18.50%)
same,"10th question: Highly satisfied, patients (%)",Follow-up,(9.56%)
same,"10th question: Mostly dissatisfied, patients (%)",Follow-up,(19.05%)
same,"10th question: Mostly satisfied, patients (%)",Follow-up,(32.12%)
same,"10th question: Partly satisfied, patients (%)",Follow-up,(20.77%)
same,"11th question: Continuously worried, patients (%)",Follow-up,(1.38%)
same,"11th question: No worried, patients (%)",Follow-up,(8.80%)
same,"11th question: Occasionally worried, patients (%)",Follow-up,(38.93%)
same,"11th question: Often worried, patients (%)",Follow-up,(6.74%)
same,"11th question: Seldom worried, patients (%)",Follow-up,(44.15%)
same,"SAQ 4th question, 1-2 times per week: % of patients",Follow-up,(13.28%)
same,"SAQ 4th question, 1-2 times per week: number of patients",Follow-up,192
same,"SAQ 4th question, 1-3 times per week: % of patients",Follow-up,(2.84%)
same,"SAQ 4th question, 1-3 times per week: number of patients",Follow-up,41
same,"SAQ 4th question, <1 time per week: % of patients",Follow-up,(16.04%)
same,"SAQ 4th question, <1 time per week: number of patients",Follow-up,232
same,"SAQ 4th question, Not used: % of patients",Follow-up,(66.04%)
same,"SAQ 4th question, Not used: number of patients",Follow-up,955
same,"SAQ 4th question, ≧3 times per week: % of patients",Follow-up,(1.80%)
same,"SAQ 4th question, ≧3 times per week: number of patients",Follow-up,26
same,"SAQ 4th question, ≧4 times per day: % of patients",Follow-up,(0.00%)
same,"SAQ 4th question, ≧4 times per day: number of patients",Follow-up,0
same,"SAQ 5th question, 1-2 times per week: % of patients",Follow-up,(32.97%)
same,"SAQ 5th question, 1-2 times per week: number of patients",Follow-up,478
same,"SAQ 5th question, 1-3 times per day: % of patients",Follow-up,(3.17%)
same,"SAQ 5th question, 1-3 times per day: number of patients",Follow-up,46
same,"SAQ 5th question, <1 time per week: % of patients",Follow-up,(31.17%)
same,"SAQ 5th question, <1 time per week: number of patients",Follow-up,452
same,"SAQ 5th question, No onset: % of patients",Follow-up,(7.52%)
same,"SAQ 5th question, No onset: number of patients",Follow-up,109
same,"SAQ 5th question, ≧3 times per week: % of patients",Follow-up,(25.03%)
same,"SAQ 5th question, ≧3 times per week: number of patients",Follow-up,363
same,"SAQ 5th question, ≧4 times per day: % of patients",Follow-up,(0.14%)
same,"SAQ 5th question, ≧4 times per day: number of patients",Follow-up,2
same,"SAQ 6th question, Dissatisfied: % of patients",Follow-up,(0.00%)
same,"SAQ 6th question, Dissatisfied: number of patients",Follow-up,0
same,"SAQ 6th question, Highly satisfied: % of patients",Follow-up,(28.18%)
same,"SAQ 6th question, Highly satisfied: number of patients",Follow-up,410
same,"SAQ 6th question, Mostly dissatisfied: % of patients",Follow-up,(0.62%)
same,"SAQ 6th question, Mostly dissatisfied: number of patients",Follow-up,9
same,"SAQ 6th question, Mostly satisfied: % of patients",Follow-up,(62.75%)
same,"SAQ 6th question, Mostly satisfied: number of patients",Follow-up,913
same,"SAQ 6th question, Partly satisfied: % of patients",Follow-up,(8.45%)
same,"SAQ 6th question, Partly satisfied: number of patients",Follow-up,123
same,"SAQ 7th question, Dissatisfied: % of patients",Follow-up,(0.00%)
same,"SAQ 7th question, Dissatisfied: number of patients",Follow-up,0
same,"SAQ 7th question, Highly satisfied: % of patients",Follow-up,(30.56%)
same,"SAQ 7th question, Highly satisfied: number of patients",Follow-up,444
same,"SAQ 7th question, Mostly dissatisfied: % of patients",Follow-up,(0.28%)
same,"SAQ 7th question, Mostly dissatisfied: number of patients",Follow-up,4
same,"SAQ 7th question, Mostly satisfied: % of patients",Follow-up,(62.49%)
